Results as given in paper PMC4503722, “Novel Phenotypic Outcomes Identified for a Public Collection of Approved Drugs from a Publicly Accessible Panel of Assays” (PLoS ONE, 2015).

Key:
[1] = tested on: INS-1E cells; assay: cells; assay type: cell-based, rat; settings: 5 mM glucose; for 5mMGluc_INS1E SecretionMod IC50/EC50: assay number 8;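 on all read-outs here: secreted insulin quantified by homogeneous immunoassay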
[2] = tested on: NCI-H716 cells; assay: cells; assay type: cell-based, Human; settings: concentration response
[3] = tested on: endothelial tube formation in co-cultures of ECFCs and ADSCs treated with VEGF; assay: cells; assay type: cell-based, human
[4] = tested on: HeLa cells; assay: cells; assay type: cell-based
[5] = tested on: ECFC/ADSC co-culture cell nuclei number

C[C@@H](CN(C)C)CN1c2ccccc2Sc2ccccc21.C[C@@H](CN(C)C)CN1c2ccccc2Sc2ccccc21.O=C(O)C(O)C(O)C(=O)O [NCGC00178737-05]
IC50/EC50, 5mMGluc_INS1E SecretionMod (assay number 8) [1]: > 33.33 µM

CCCC(CCC)C(=O)O [NCGC00162288-07]
IC50/EC50, 5mMGluc_INS1E SecretionMod (assay number 8) [1]: > 33.33 µM

Cc1ccc(C(=O)Nc2ccc(S(=O)(=O)O)c3cc(S(=O)(=O)O)cc(S(=O)(=O)O)c23)cc1NC(=O)c1cccc(NC(=O)Nc2cccc(C(=O)Nc3cc(C(=O)Nc4ccc(S(=O)(=O)O)c5cc(S(=O)(=O)O)cc(S(=O)(=O)O)c45)ccc3C)c2)c1 [NCGC00025177-08]
IC50/EC50, hNCI-H716 GLP1 Secretion (assay number 12) [2]: > 40 µM

Cc1cc(-n2nc3ccc(Cl)cc3n2)c(O)c(C(C)(C)C)c1 [NCGC00166260-03]
5mMGluc_INS1E SecretionMod IC50/EC50 [1]: > 33.33 µM

CN(C)CC[C@H](c1ccc(Cl)cc1)c1ccccn1 [NCGC00015227-08]
5mMGluc_INS1E SecretionMod IC50/EC50 [1]: 17.749 µM

CN(C)CCOC(C)(c1ccccc1)c1ccccn1.O=C(O)CCC(=O)O (centres unmarked) [NCGC00021147-11]
5mMGluc_INS1E SecretionMod IC50/EC50 [1]: > 33.33 µM

CN1C(=O)CC[C@H]1c1cccnc1 [NCGC00093739-13]
5mMGluc_INS1E SecretionMod IC50/EC50 [1]: > 33.33 µM

CCN(CC)CCNC(=O)c1c(C)[nH]c(/C=C2\C(=O)Nc3ccc(F)cc32)c1C [NCGC00164631-05]
VEGF_ADSC\ECFC Angio CD31 TubeArea IC50/EC50 [3]: 0.0254 µM | 5mMGluc_INS1E SecretionMod IC50/EC50 [1]: > 33.33 µM | Hela CellCycMod PI 2N IC50/EC50 ([4]; assay number 14, 2N): > 10 µM | Hela CellCycMod PI S Phase IC50/EC50 ([4]; assay number 15, S phase): > 10 µM | Hela CellCycMod PI 4N IC50/EC50 ([4]; assay number 16, 4N): > 10 µM | Hela CellCycMod PI MI IC50/EC50 ([4]; assay number 17, MI): 3.8121 µM | Hela CellCycMod PI Cell Number IC50/EC50 ([4]; assay number 18, cell number): 1.2784 µM | VEGF_ADSC\ECFC Angio Hoechst NucArea IC50/EC50 [5]: > 10 µM

Cc1ccc(O)c([C@H](CCN(C(C)C)C(C)C)c2ccccc2)c1 [NCGC00263557-01]
5mMGluc_INS1E SecretionMod IC50/EC50 [1]: > 33.33 µM

COc1ccc(Cl)cc1C(=O)NCCc1ccc(S(=O)(=O)NC(=O)NC2CCCCC2)cc1 [NCGC00015467-20]
IC50/EC50, 5mMGluc_INS1E SecretionMod (assay number 8) [1]: 0.00808 µM

CCN1CCCC(OC(=O)C(c2ccccc2)c2ccccc2)C1 (centres unmarked) [NCGC00178395-04]
5mMGluc_INS1E SecretionMod IC50/EC50 [1]: 18.2267 µM

CC(C(O)c1ccccc1)N(C)CCOC(c1ccccc1)c1ccccc1 (centres unmarked) [NCGC00181913-02]
5mMGluc_INS1E SecretionMod IC50/EC50 [1]: > 33.33 µM

CCO[C@H](Cc1ccc(OCCc2ccc(OS(C)(=O)=O)cc2)cc1)C(=O)O [NCGC00182082-03]
5mMGluc_INS1E SecretionMod IC50/EC50 [1]: > 33.33 µM
